The text below walks through data of patent US20250073340A1, “SPIROCYCLIC MDM2 MODULATOR AND USES THEREOF” (Newave Pharmaceutical Inc., priority 2021, published 2025).

One assay addresses MDM2 (Homo sapiens (Human), UniProt Q00987). The experiment in a line: In vitro MDM2 HTRF assay (inhibition of p53-MDM2 interaction). The settings on record: GST-MDM2 / biotinylated p53 peptide. The assay is classed as binding. (In general: TR-FRET usually uses a lanthanide donor and a delayed reading to cut background.)
Assay [1] deals with BCL-2-dependent acute lymphoblastic leukemia (ALL) cell line RS4;11 overexpressing Bcl-2 G101V. The experiment in a line: cells. In kind it is cell-based. The settings on record: Homo sapiens, RS4-11; about 72 hours, ATPlite luminescence; read-out: RS4;11-G101V IC50. How it is done: Biological Example 2: In vitro Anti-proliferation Assay in BCL-2-dependent acute lymphoblastic leukemia (ALL) cell line RS4; 11 overexpressing Bcl-2 G101V
Cell antiproliferation was assayed by PerkinElmer ATPlite™ Luminescence Assay System. Briefly, the various test cancer cell lines were plated at a density of about 1×10^4 cells per well in Costar 96-well plates, and were incubated with different concentrations of compounds for about 72 hours in medium supplemented with 5% FBS or 10% normal human serum (NHS). One lyophilized substrate solution vial was then reconstituted by adding 5 mL of substrate buffer solution, and was agitated gently until the solution was homogeneous. About 50 μL of mammalian cell lysis solution was added to 100 μL of cell suspension per well of a microplate, and the plate was shaken for about five minutes in an orbital shaker at −700 rpm. This procedure was used to lyse the cells and to stabilize the ATP. Next, 50 μL substrate solution was added to the wells and microplate was shaken for five minutes in an orbital shaker at −700 rpm. Finally, the luminescence was measured by a PerkinElmer TopCount® Microplate Scintillation Counter. Such assays, carried out with a range of doses of test compounds, allowed the determination of the cellular anti-antiproliferative IC50 of the compounds of the present invention.
For orientation: In ATP-based viability assays light output follows the ATP content of the culture.

MDM2, sequence (Q00987 whole entry): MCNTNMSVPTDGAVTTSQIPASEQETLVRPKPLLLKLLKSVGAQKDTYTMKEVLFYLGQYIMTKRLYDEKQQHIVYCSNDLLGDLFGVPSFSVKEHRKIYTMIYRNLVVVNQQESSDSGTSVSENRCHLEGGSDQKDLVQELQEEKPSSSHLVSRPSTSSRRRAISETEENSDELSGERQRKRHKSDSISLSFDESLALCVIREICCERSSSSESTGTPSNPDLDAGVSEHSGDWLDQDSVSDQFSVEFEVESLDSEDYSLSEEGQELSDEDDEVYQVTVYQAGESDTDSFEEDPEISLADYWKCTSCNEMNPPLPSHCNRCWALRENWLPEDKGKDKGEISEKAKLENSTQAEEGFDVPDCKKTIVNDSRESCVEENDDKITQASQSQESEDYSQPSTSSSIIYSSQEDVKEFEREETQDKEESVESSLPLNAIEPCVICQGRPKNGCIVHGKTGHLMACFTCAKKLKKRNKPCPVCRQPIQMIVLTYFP

`COc1cc(C(N)=O)ccc1NC(=O)[C@@H]1N[C@@H](CC(C)(C)C)[C@@]2(CNc3cc(Cl)ncc32)[C@H]1c1cccc(Cl)c1F` [Example 9, (2S,3S,4S,5R)—N-(4-carbamoyl-2-methoxyphenyl)-6′-chloro-4-(3-chloro-2-fluorophenyl)-2-(2,2-dimethylpropyl)-1′,2′-dihydrospiro[pyrrolidine-3,3′-pyrrolo[3,2-c]pyridine]-5-carboxamide]: the IC50 turned out to be 0.58 nM at MDM2 and 11 nM in assay [1].
`COc1cc(C(N)=O)ccc1NC(=O)[C@@H]1N[C@@H](CC(C)(C)C)[C@@]2(CNc3cc(C(F)(F)F)ncc32)[C@H]1c1cccc(Cl)c1F` [Example 11, (2S,3S,4S,5R)—N-(4-carbamoyl-2-methoxyphenyl)-4-(3-chloro-2-fluorophenyl)-2-(2,2-dimethylpropyl)-6′-(trifluoromethyl)-1′,2′-dihydrospiro[pyrrolidine-3,3′-pyrrolo[3,2-c]pyridine]-5-carboxamide]: the IC50 against MDM2 is 0.18 nM; in assay [1] it was 44.7 nM.
For the compound `CC(C)(C)C[C@@H]1N[C@@H](C(=O)N2CCOc3cc(C(N)=O)ccc32)[C@H](c2cccc(Cl)c2F)[C@]12CNc1cc(Cl)ccc12` [Example 14, 4-((2′S,3S,4′S,5′R)-6-chloro-4′-(3-chloro-2-fluorophenyl)-2′-neopentylspiro[indoline-3,3′-pyrrolidine]-5′-carbonyl)-3,4-dihydro-2H-benzo[b][1,4]oxazine-7-carboxamide], the IC50 is 114 nM at MDM2 and greater than 1000 nM in assay [1].
Take `CC(C)(C)C[C@H]1N[C@H](C(=O)N2CCOc3cc(C(N)=O)ccc32)[C@@H](c2cccc(Cl)c2F)[C@@]12CNc1cc(Cl)ccc12` [Example 15, 4-((2′R,3R,4′R,5′S)-6-chloro-4′-(3-chloro-2-fluorophenyl)-2′-neopentylspiro[indoline-3,3′-pyrrolidine]-5′-carbonyl)-3,4-dihydro-2H-benzo[b][1,4]oxazine-7-carboxamide]: the IC50 is 638 nM on MDM2 and greater than 1000 nM in assay [1].
Taken in the same sequence, the figures for `COc1cc(C(=O)NCCCC#Cc2cccc3c2CN(C2CCC(=O)NC2=O)C3=O)ccc1NC(=O)[C@@H]1N[C@@H](CC(C)(C)C)[C@@]2(CNc3cc(Cl)ccc32)[C@H]1c1cccc(Cl)c1F` (stereo partly drawn) [Example 16, (2′S,3S,4′S,5′R)-6-chloro-4′-(3-chloro-2-fluorophenyl)-N-(4-((5-(2-(2,6-dioxopiperidin-3-yl)-1-oxoisoindolin-4-yl)pent-4-yn-1-yl)carbamoyl)-2-methoxyphenyl)-2′-neopentylspiro[indoline-3,3′-pyrrolidine]-5′-carboxamide] were 1.54 nM and 10.1 nM.
Take `COc1cc(C(=O)NCCCC#Cc2cccc3c2CN([C@@H]2CCC(=O)NC2=O)C3=O)ccc1NC(=O)[C@@H]1N[C@@H](CC(C)(C)C)[C@@]2(CNc3cc(Cl)ccc32)[C@H]1c1cccc(Cl)c1F` [Example 17, (2′S,3S,4′S,5′R)-6-chloro-4′-(3-chloro-2-fluorophenyl)-N-(4-((5-(2-((R)-2,6-dioxopiperidin-3-yl)-1-oxoisoindolin-4-yl)pent-4-yn-1-yl)carbamoyl)-2-methoxyphenyl)-2′-neopentylspiro[indoline-3,3′-pyrrolidine]-5′-carboxamide]: the IC50 was 1.36 nM at MDM2 and 3.82 nM in assay [1].
With `COc1cc(C(=O)NCCCC#Cc2cccc3c2CN([C@H]2CCC(=O)NC2=O)C3=O)ccc1NC(=O)[C@@H]1N[C@@H](CC(C)(C)C)[C@@]2(CNc3cc(Cl)ccc32)[C@H]1c1cccc(Cl)c1F` [Example 18, (2′S,3S,4′S,5′R)-6-chloro-4′-(3-chloro-2-fluorophenyl)-N-(4-((5-(2-((S)-2,6-dioxopiperidin-3-yl)-1-oxoisoindolin-4-yl)pent-4-yn-1-yl)carbamoyl)-2-methoxyphenyl)-2′-neopentylspiro[indoline-3,3′-pyrrolidine]-5′-carboxamide], the IC50 against MDM2 worked out at 1.3 nM; in assay [1], 5.91 nM.
Taken in the same sequence, the figures for `COc1cc(C(=O)N2CCC(C#Cc3cccc4c3CN(C3CCC(=O)NC3=O)C4=O)CC2)ccc1NC(=O)[C@@H]1N[C@@H](CC(C)(C)C)[C@@]2(CNc3cc(Cl)ccc32)[C@H]1c1cccc(Cl)c1F` (stereo partly drawn) [Example 20, (2′S,3S,4′S,5′R)-6-chloro-4′-(3-chloro-2-fluorophenyl)-2′-(2,2-dimethylpropyl)-N-[4-(4-{2-[2-(2,6-dioxopiperidin-3-yl)-1-oxo-3H-isoindol-4-yl]ethynyl}piperidine-1-carbonyl)-2-methoxyphenyl]-1,2-dihydrospiro[indole-3,3′-pyrrolidine]-5′-carboxamide] were 3.67 nM and 31.9 nM.
Regarding `COc1cc(N2CCC[C@H](C#Cc3cccc4c3CN([C@H]3CCC(=O)NC3=O)C4=O)C2)ccc1NC(=O)[C@@H]1N[C@@H](CC(C)(C)C)[C@@]2(CNc3cc(Cl)ccc32)[C@H]1c1cccc(Cl)c1F` [Example 28, (2′S,3S,4′S,5′R)-6-chloro-4′-(3-chloro-2-fluorophenyl)-N-(4-((R)-3-((2-((S)-2,6-dioxopiperidin-3-yl)-1-oxoisoindolin-4-yl)ethynyl)piperidin-1-yl)-2-methoxyphenyl)-2′-neopentylspiro[indoline-3,3′-pyrrolidine]-5′-carboxamide], the IC50 against MDM2 amounted to 10.8 nM.
Regarding `COc1cc(N2CCC[C@H](C#Cc3cccc4c3CN([C@@H]3CCC(=O)NC3=O)C4=O)C2)ccc1NC(=O)[C@@H]1N[C@@H](CC(C)(C)C)[C@@]2(CNc3cc(Cl)ccc32)[C@H]1c1cccc(Cl)c1F` [Example 29, (2′S,3S,4′S,5′R)-6-chloro-4′-(3-chloro-2-fluorophenyl)-N-(4-((R)-3-((2-((R)-2,6-dioxopiperidin-3-yl)-1-oxoisoindolin-4-yl)ethynyl)piperidin-1-yl)-2-methoxyphenyl)-2′-neopentylspiro[indoline-3,3′-pyrrolidine]-5′-carboxamide], the IC50 against MDM2 turned out to be 12 nM.
`COc1cc(N2CCC[C@@H](C#Cc3cccc4c3CN([C@H]3CCC(=O)NC3=O)C4=O)C2)ccc1NC(=O)[C@@H]1N[C@@H](CC(C)(C)C)[C@@]2(CNc3cc(Cl)ccc32)[C@H]1c1cccc(Cl)c1F` [Example 30, (2′S,3S,4′S,5′R)-6-chloro-4′-(3-chloro-2-fluorophenyl)-N-(4-((S)-3-((2-((S)-2,6-dioxopiperidin-3-yl)-1-oxoisoindolin-4-yl)ethynyl)piperidin-1-yl)-2-methoxyphenyl)-2′-neopentylspiro[indoline-3,3′-pyrrolidine]-5′-carboxamide] displayed an IC50 on MDM2 of 13.2 nM.
On to `COc1cc(N2CCC[C@@H](C#Cc3cccc4c3CN([C@@H]3CCC(=O)NC3=O)C4=O)C2)ccc1NC(=O)[C@@H]1N[C@@H](CC(C)(C)C)[C@@]2(CNc3cc(Cl)ccc32)[C@H]1c1cccc(Cl)c1F` [Example 31, (2′S,3S,4′S,5′R)-6-chloro-4′-(3-chloro-2-fluorophenyl)-N-(4-((S)-3-((2-((R)-2,6-dioxopiperidin-3-yl)-1-oxoisoindolin-4-yl)ethynyl)piperidin-1-yl)-2-methoxyphenyl)-2′-neopentylspiro[indoline-3,3′-pyrrolidine]-5′-carboxamide], for which the IC50 against MDM2 turned out to be 6.1 nM.
